Assay results published in patent publication US20160109450A1, “METHOD FOR MONITORING METASTASIS OF CANCER CELLS USING CELLS CULTURED IN THREE DIMENSIONAL COLLAGEN ENVIRONMENT” (Medicinal Bioconvergence Research Center, priority 2013, published 2016).

Assays:
MDA-MB-231 cell line [1] = conditions: ERK inhibitor treated cells
MDA-MB-231 cell line [2] = assay: ChIP (chromatin immunoprecipitation) on snail1 and cortactin promoters; format: cell-based, human; conditions: ChIP with anti-pS63 c-Jun antibody
Description: The cells were then treated with 1.5 M glycine, followed by washing with cold PBS containing protease inhibitor. The fixed cells were loaded in SDS-lysis buffer supplemented with protease/kinase inhibitor, followed by sonication for lysis. The lysed sample proceeded to […] at 13000 rpm for 3 minutes, and the supernatant was transferred into a microcentrifuge tube, followed by sonication again for chromatin fragmentation. Supernatant was obtained by centrifugation, some of which was transferred into input and some of which was reacted with the antibodies of phospho-Ser^63-c-Jun, snail1, and smad 2/3/4 (cell signaling technology, USA) at 4° C. for at least 18 hours. Upon completion of the reaction, the tube was taken out from 4° C., to which sepharose beads coated with protein A and G (1:1), followed by reaction at 4° C. for 4 hours. The tube was then washed with RIPA/150 mM NaCl solution and washed again with RIPA/350 mM NaCl solution. The washed sample was washed again with LiCl washing buffer, which was washed with TE (Tris/EDTA) solution three times. TE solution was added thereto, followed by reaction at 65° C. for 15 hours. On the 3rd day of the reaction, RNase A was added to each input and sample, followed by reaction at 37° C. Proteinase K was added thereto, followed by reaction at 55° C. for 1 hour. […]

Structure (SMILES) | cell growth (MDA-MB-231 cell line [1]) | binding of c-Jun to snail1 promoter region (MDA-MB-231 cell line [2])
N#CC(=C(/N)Sc1ccccc1N)/C(C#N)=C(/N)Sc1ccccc1N [ERK inhibitor] | did not grow normally but instead showed dying proneness | 
Oc1c2ccccc2c2c3c(cccc13)N=N2 [SP600125] |  | did not bind
